From US20220372040A1, “METTL3 MODULATORS” (Accent Therapeutics, Inc., priority 2020, published 2022)

How the values were obtained:
[1] = tested on: MOLM-13 cells; assay: MOLM-13 48 Hour cell proliferation assay (Cell Titer-Glo); type: cell-based; settings: Homo sapiens
Protocol: MOLM-13 48 Hour Cell Proliferation Assay
MOLM-13 (DSMZ) cells were seeded at 1000 cells per well in a volume of 44 μL in a Falcon 384-well tissue culture treated clear bottom microplate in RPMI 1640 media containing 10% fetal bovine serum using a Multidrop Combi (ThermoFisher Scientific). Cells were incubated overnight at 37° C. in a humidified tissue culture incubator. The Mosquito® HTS Liquid Handler was used to make a compound/media intermediate plate by aliquoting […] of compound from the initial compound dilution plate (concentrations ranging from 10.0 mM to 38.0 nM in 100% DMSO) into a V bottom 384-well screen matrix plate containing 49 µL of media containing the appropriate serum (50-fold dilution, 2% DMSO). The Apricot liquid handling system was used to transfer […] compounds from the intermediate plate into the Falcon 384-well tissue culture plate containing 44 μL cells (10-point, 4-fold dilution spanning concentrations 25.0 μM to […], 0.25% DMSO final), and placed in a humidified tissue culture incubator at 37° C. After 48 hours, 25 μL of Cell Titer-Glo reagent (Promega) was added to each well using a Multidrop Combi. The plate was protected from light and placed on an IKA plate shaker for at 300 rpm for 10 minutes at room temperature. The plate was read on an EnVision plate reader (Perkin Elmer) using the Ultra Sensitive Luminescence protocol. Data analysis was performed by normalizing the raw luminescence units to an average of the positive control values for staurosporine (100% cell death) and the negative control values for DMSO (0% cell death). An IC50 was calculated using a 4-parameter logistic nonlinear regression model in GraphPad Prism.

[2] = target: T1, METTL16 (Homo sapiens, UniProt Q86W50); assay: METTL16 assay (3H-SAM flashplate scintillation); type: biochemical; settings: METTL16 100 nM, RNA 50 nM, 3H-SAM 200 nM, SAM 800 nM, 20 min
T1 sequence (Q86W50 1-562): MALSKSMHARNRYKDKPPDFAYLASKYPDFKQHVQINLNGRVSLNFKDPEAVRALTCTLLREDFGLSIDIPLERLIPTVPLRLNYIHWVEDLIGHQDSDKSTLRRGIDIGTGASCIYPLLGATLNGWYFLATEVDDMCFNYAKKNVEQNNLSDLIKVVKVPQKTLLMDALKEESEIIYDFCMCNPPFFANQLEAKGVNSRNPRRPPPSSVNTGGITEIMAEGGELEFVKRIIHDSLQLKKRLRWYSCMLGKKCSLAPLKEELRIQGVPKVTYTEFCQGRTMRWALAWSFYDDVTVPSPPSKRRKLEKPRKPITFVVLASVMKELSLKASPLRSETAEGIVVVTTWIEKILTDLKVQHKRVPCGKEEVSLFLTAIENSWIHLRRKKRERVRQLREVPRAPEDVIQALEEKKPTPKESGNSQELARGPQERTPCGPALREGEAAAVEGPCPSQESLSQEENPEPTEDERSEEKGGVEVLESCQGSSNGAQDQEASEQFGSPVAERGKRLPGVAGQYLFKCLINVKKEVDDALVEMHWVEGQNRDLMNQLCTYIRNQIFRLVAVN
Method in brief: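 Radiometric methyltransferase reaction at ambient temperature in 20 mM HEPES pH 7.5, 50 mM KCl, 1 mM DTT, with 100 nM enzyme preincubated 5 min with compound. It was started with 50 nM 3′-biotinylated RNA, 200 nM 3H-SAM plus 800 nM cold SAM, run 20 min, then quenched with excess cold SAM. Product was captured on streptavidin flashplates and scintillation-counted.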

[3] = tested on: m^6 A in cellular mRNA of MOLM-13 cells; assay: m^6 A-mRNA LC-MS/MS assay (m^6 A cellular assay); type: cell-based; settings: Homo sapiens, 24 hours incubation, LC-MS/MS of m^6 A/A in mRNA
Method in brief: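 MOLM-13 cells in RPMI 1640 with 10% FBS dosed 24 h at 37° C. with 8-point, 4-fold series from 25 μM to 1.5 nM, 0.25% DMSO. Extracted mRNA digested to nucleosides and quantified by LC-MS/MS against standards; result expressed as 100*(m^6 A/A).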

| SMILES | IC50 [1] | IC50 [2] | IC50 [3] |
| --- | --- | --- | --- |
| CNc1ccc2ccc(OCc3cncc(-n4cc(CC5CC5)c5c(N)ncnc54)c3)cc2n1 [Compound I-29] | < 1000 nM | > 1000 nM | 1000 to 10000 nM |
| CNc1ccc2ccc(CCc3cncc(-n4ccc5c(N)ncnc54)c3)cc2n1 [Compound I-30] | 1000 to 10000 nM | > 1000 nM | 1000 to 10000 nM |
| CNc1ccc2ccc(OCc3cc(CO)cc(-n4cc(Cl)c5c(N)ncnc54)c3)cc2n1 [Compound I-34] | < 1000 nM | > 1000 nM | ≥ 10000 nM |
| CNc1ccc2ccc(OCc3cncc(-n4cc(-c5ccnn5C)c5c(N)ncnc54)c3)cc2n1 [Compound I-35] | < 1000 nM | > 1000 nM | ≥ 10000 nM |
| CNc1ccc2ccc(OCc3cncc(-n4c(C)cc5c(N)ncnc54)c3)cc2n1 [Compound I-36] | 1000 to 10000 nM | > 1000 nM | 1000 to 10000 nM |
| CNc1ccc2ccc(OCc3cncc(-n4cc(C5CCCC5)c5c(N)ncnc54)c3)cc2n1 [Compound I-58] | < 1000 nM | > 1000 nM | 1000 to 10000 nM |
| CCNc1ccc2ccc(OCc3cccc(-n4cc(Cl)c5c(N)ncnc54)c3)cc2n1 [Compound I-61] |  | > 1000 nM |  |
| CNc1ccc2cc(CCc3cccc(-n4cc(Cl)c5c(N)ncnc54)c3)ccc2n1 [Compound I-70] | 1000 to 10000 nM | > 1000 nM | ≥ 10000 nM |
| CNc1ccc2ccc(OCc3cncc(-n4cc(Cl)c5c(N)ncnc54)c3)cc2n1 [Compound I-74, 7-((5-(4-amino-5-chloro-7H-pyrrolo[2,3-d]pyrimidin-7-yl)pyridin-3-yl)methoxy)-N-methylquinolin-2-amine] | 1000 to 10000 nM | > 1000 nM | 1000 to 10000 nM |
| CNc1ccc2ccc(OCc3cc(Br)cc(-n4cc(Cl)c5c(N)ncnc54)c3)cc2n1 [Compound I-75] |  | > 1000 nM |  |
| CNc1ccc2ccc(OCc3cccc(-n4cc(Cl)c5c(N)ncnc54)c3)cc2n1 [Compound I-87] | 1000 to 10000 nM | > 1000 nM |  |
| Nc1nc2cc(OCc3cncc(-n4ccc5c(N)ncnc54)c3)ccc2cc1Br [Compound I-111] |  | > 1000 nM |  |
| CNc1ccc2ccc(OCc3cncc(-n4cc([C@H]5CCCO5)c5c(N)ncnc54)c3)cc2n1 [Compound I-112] |  | > 1000 nM | 1000 to 10000 nM |
| CNc1ccc2ccc(OCc3cncc(-n4cc([C@@H]5CCCO5)c5c(N)ncnc54)c3)cc2n1 [Compound I-113] |  | > 1000 nM | < 1000 nM |
| Cn1ccc(-c2cn(-c3cncc(CCc4ccc5ccc(N)nc5c4)c3)c3ncnc(N)c23)n1 [Compound I-114] |  | > 1000 nM |  |
| CCc1cc(NCCOC)c2ccc(CCc3cncc(-n4cc(-c5ccn(C)n5)c5c(N)ncnc54)c3)cc2n1 [Compound I-115] |  | > 1000 nM | < 1000 nM |
| CNc1ccc2ccc(CCc3cncc(-n4cc(F)c5c(N)ncnc54)c3)cc2n1 [Compound I-116] |  | > 1000 nM |  |
| CCc1cc(N(C)CCOC)c2ccc(CCc3cncc(-n4cc(-c5ccn(C)n5)c5c(N)ncnc54)c3)cc2n1 [Compound I-117] |  | > 1000 nM | < 1000 nM |
| CCc1cc(N2CCC(F)(F)CC2)c2ccc(OCc3cncc(-n4ccc5c(N)ncnc54)c3)cc2n1 [Compound I-118] |  | > 1000 nM |  |
| CNc1ccc2ccc(OCc3cncc(-n4cc(C(C)C5CC5)c5c(N)ncnc54)c3)cc2n1 (stereo not drawn) [Compound I-120] |  | > 1000 nM |  |
| CCc1cc(N2CCNCC2)c2ccc(OCc3cncc(-n4cc(-c5ccn(C)n5)c5c(N)ncnc54)c3)cc2n1 [Compound I-121] |  | > 1000 nM | 1000 to 10000 nM |
| CCc1cc(NC)c2ccc(CCc3cncc(-n4cc(-c5ccn(C)n5)c5c(N)ncnc54)c3)cc2n1 [Compound I-122] |  | > 1000 nM |  |
| Cn1ccc(-c2cn(-c3cncc(CCc4ccc5cc(Br)c(N)nc5c4)c3)c3ncnc(N)c23)n1 [Compound I-123] |  | > 1000 nM |  |
| C[C@@H]1CCN1c1ccc2ccc(OCc3cncc(-n4cc(C5CCCC5)c5c(N)ncnc54)c3)cc2n1 [Compound I-124] |  | > 1000 nM |  |
| Nc1ncnc2c1c(C1CCCO1)cn2-c1cncc(CCc2ccc3ccc(N4CCC4)nc3c2)c1 (stereo not drawn) [Compound I-126] |  | > 1000 nM | 1000 to 10000 nM |
| CCc1cc(NCCCN(C)C)c2ccc(CCc3cncc(-n4ccc5c(N)ncnc54)c3)cc2n1 [Compound I-127] |  | > 1000 nM |  |
| CCNc1ccc2ccc(OCc3cncc(-n4cc(-c5ccn(C)n5)c5c(N)ncnc54)c3)cc2n1 [Compound I-128] |  | > 1000 nM | 1000 to 10000 nM |
| CNc1ccc2ccc(OCc3cncc(-n4cc(-c5ccc(C)o5)c5c(N)ncnc54)c3)cc2n1 [Compound I-234] |  | > 1000 nM | 1000 to 10000 nM |
| CNc1ccc2ccc(OCc3cncc(-n4cc(-c5ncco5)c5c(N)ncnc54)c3)cc2n1 [Compound I-235] |  | > 1000 nM |  |
